Experimental data taken from patent US8138361B2, “C-10 carbamates of taxanes” (The Trustees Of The University Of Pennsylvania, priority 2005, dated 2012).
Like-named read-outs stand apart in the source and are kept apart here.

Tests used:
[1] = tested on: tumor cell lines; assay: Cytotoxicity assay (AlamarBlue, monolayer); format: cell-based
Procedure: Monolayer assays with tumor cell lines (MCF-7 breast carcinoma and HT-29 colorectal carcinoma from ATCC) were carried out in triplicate in 96-well plates with PMI1640 medium containing 5% fetal bovine serum, 100 U/ml penicillin and 100 μg/ml streptomycin. […] Exponentially growing cells (5,000 MCF-7 or HT-29; 1,500 HFF) were plated in 100 μl medium and incubated overnight (5% CO2, 37° C.). Compounds (20 pM to 20 μM final concentration, 6-8 doses) and vehicle (DMSO) controls were added and the incubation was continued for an additional 72 hours. […] EC50 values were generated from dose-response curves by a 4-parameter method using Softmax PRO software, Mean FC50s (±SD) represent the average of all tests carried out for all lots of a given compound.
1. Cells: • a. Breast tumor cell lines, MCF-7 and NCI/ADR-RES • b. Colon tumor cell lines: HCT-15 and HT-29 • c. Leukemia cell line K562 and K562/R • d. Non-small cell lung cancer cell line A549 • e. Human foreskin fibroblast cells (HFF) • f. Human umbilical vein endothelial cells (HUVEC)
2. Cell Culture: • a. All tumor cells were grown in RPMI1640 medium supplemented with 5% (v/v) fetal bovine serum and the antibiotics in a final concentration of 100 U/ml of penicillin and 100 μg/ml of streptomycin in an atmosphere of 5% CO2. • b. HFF and HUVEC were grown in the medium of FGM-2 and EGM-2 from Cambrex,
3. Cytotoxicity Assay: • a. Day 1: Cells growing exponentially were transferred to 96-well tissue culture plates. All cell types were plated at a density of 1,500-5,000 cells per well in 100 μl complete medium. • b. Day 2: 100 μl of experimental compounds in complete medium was added in triplicate wells, • c. Day 5; Cell growth inhibition was assayed using the AlamarBlue (BioSource, Camarillo, Calif.) signal reduction assay. Correlation between AlamarBlue and cell proliferation has been established in the literature. Compound concentration versus relative fluorescence units was plotted.
Detailed procedures for conducting the assays are provided herein and are known in the art.

[2] = molecular target: T1, Pgp (Bos taurus, UniProt A0A3Q1MB23); assay: Rhodamine 123 uptake assay in Bovine Brain Endothelial Cells (BBEC); format: cell-based; conditions: 25 micromolar; for Rhodamine 123 uptake: 45 min incubation, fluorescence normalized to protein content, average
T1 construct: Bovine Brain Endothelial Cells (BBEC) express Pgp; endogenous in cells; host or cells: Bovine Brain Endothelial Cells (BBEC)
T1 sequence (A0A3Q1MB23 1-1267): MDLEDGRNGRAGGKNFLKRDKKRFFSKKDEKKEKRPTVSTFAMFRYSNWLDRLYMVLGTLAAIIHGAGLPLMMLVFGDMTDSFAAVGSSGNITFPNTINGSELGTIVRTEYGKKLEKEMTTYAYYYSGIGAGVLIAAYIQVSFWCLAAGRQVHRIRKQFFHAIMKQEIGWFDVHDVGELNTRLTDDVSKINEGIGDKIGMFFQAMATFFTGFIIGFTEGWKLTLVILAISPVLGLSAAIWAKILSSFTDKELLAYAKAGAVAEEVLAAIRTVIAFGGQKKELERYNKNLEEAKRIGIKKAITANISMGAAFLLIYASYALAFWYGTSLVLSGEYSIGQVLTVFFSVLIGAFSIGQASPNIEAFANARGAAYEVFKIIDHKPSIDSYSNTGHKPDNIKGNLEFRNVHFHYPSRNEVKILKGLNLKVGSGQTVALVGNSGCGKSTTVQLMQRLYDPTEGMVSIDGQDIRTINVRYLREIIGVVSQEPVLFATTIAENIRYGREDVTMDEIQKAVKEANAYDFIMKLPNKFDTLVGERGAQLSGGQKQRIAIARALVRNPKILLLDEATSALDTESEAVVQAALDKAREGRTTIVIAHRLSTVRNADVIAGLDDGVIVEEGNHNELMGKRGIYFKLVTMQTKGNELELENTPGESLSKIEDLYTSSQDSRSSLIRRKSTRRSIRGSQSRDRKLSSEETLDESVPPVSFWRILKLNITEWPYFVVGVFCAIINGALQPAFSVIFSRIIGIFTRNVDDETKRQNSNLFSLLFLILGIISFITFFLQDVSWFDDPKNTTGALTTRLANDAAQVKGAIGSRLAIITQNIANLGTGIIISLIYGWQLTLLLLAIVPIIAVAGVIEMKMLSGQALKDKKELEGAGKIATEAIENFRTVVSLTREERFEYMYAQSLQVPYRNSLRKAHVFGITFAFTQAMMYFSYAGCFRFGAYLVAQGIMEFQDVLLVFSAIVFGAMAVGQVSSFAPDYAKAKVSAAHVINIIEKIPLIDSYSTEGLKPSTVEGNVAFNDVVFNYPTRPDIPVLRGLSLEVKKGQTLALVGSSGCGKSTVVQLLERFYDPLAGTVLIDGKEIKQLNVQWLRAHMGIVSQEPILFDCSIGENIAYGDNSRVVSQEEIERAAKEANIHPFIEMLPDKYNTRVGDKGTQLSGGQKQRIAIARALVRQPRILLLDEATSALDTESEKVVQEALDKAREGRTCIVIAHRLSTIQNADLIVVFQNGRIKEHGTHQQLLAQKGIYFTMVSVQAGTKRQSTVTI
Procedure: Bovine Brain Endothelial Cells (BBEC) express Pgp and are commonly used as model for Blood Brain Barrier (BBB).
All compounds and controls were run in triplicates.
The experiment was run in two 24-wells plates. […] After addition of the test compounds, cells were incubated for 45 min. After this time the drug solutions were removed by aspiration. The monolayers were then rinsed three times with ice-cold PBSG and finally solubilized with 1 mL of lysing solution for 30 min.

[3] = tested on: tubulin; assay: Tubulin polymerization assay (ability to promote polymerization of tubulin); format: biochemical
From the text: The kit is based upon an increase in quantum yield of florescence upon binding of a fluorophore to microtubules. […] Tubulin assembly may also be monitored by light scattering which is approximated by the apparent absorption at 350 nm. In the assay, BSA is employed to prevent aggregation and glycerol, which is a tubulin polymerization enhancer, is omitted from the kit to increase the signal to noise ratio. […]

[4] = average EC50, cell line not given, 72 hours incubation
[5] = average %, relative to paclitaxel

Compound	EC50 [1, 4]	MPA: ability of the compound to promote polymerization of tubulin, expressed as percentage of the activity of paclitaxel [3, 5]	also measured
CC(=O)OC12COC1CC(O)C1(C)C(=O)C(OC(=O)N(C)CC(=O)O)C3=C(C)C(OC(=O)C(O)C(NC(=O)c4ccccc4)c4ccccc4)CC(O)(C(OC(=O)c4ccccc4)C21)C3(C)C (centres unmarked) [Compound 13, PXL-10Ca-Sar-OH]	> 500 nM	–	Rhodamine 123 uptake [2]: b (b = >0.25)
PXL-10CaSpermine [Compound 16]	–	a (a > 70%)	EC50 [1]: > 500 nM
PXL-10Ca-PEG(14)-COOH [Compound 25]	> 500 nM	a (a > 70%)	–
CC(=O)O[C@H]1C(=O)[C@@]2(C)[C@H]([C@H](OC(=O)c3ccccc3)[C@]3(O)C[C@H](OC(=O)[C@H](O)[C@@H](NC(=O)c4ccccc4)c4ccccc4)C(C)=C1C3(C)C)[C@]1(OC(C)=O)CO[C@@H]1C[C@@H]2O [PXL, Paclitaxel, reference compound]	–	–	effect on rhodamine uptake (in words) [2]: higher rhodamine uptake; Rhodamine 123 uptake [2]: b (b = >0.25)
PXL-10Ca-Gly(tBu) [Compound 14]	10 to 500 nM	b (b = 30-70%)	Rhodamine 123 uptake [2]: b (b = >0.25)
PXL-10Ca-N-methyl-N-butylamine [Compound 22]	< 10 nM	a (a > 70%)	–
PXL-10Ca-Gly-N(Me)2 [Compound 15]	10 to 500 nM	–	Rhodamine 123 uptake [2]: a (a < 0.25)
PXL-10Ca-Glu	10 to 500 nM	–	–
COC(=O)C(C)NC(=O)OC1C(=O)C2(C)C(O)CC3OCC3(OC(C)=O)C2C(OC(=O)c2ccccc2)C2(O)CC(OC(=O)C(O)C(NC(=O)c3ccccc3)c3ccccc3)C(C)=C1C2(C)C (centres unmarked) [Compound 39, PXL-10Ca-alanine-Me-ester]	–	–	EC50 [1]: < 10 nM
CC(=O)OC12COC1CC(O)C1(C)C(=O)C(OC(=O)NCC(=O)O)C3=C(C)C(OC(=O)C(O)C(NC(=O)c4ccccc4)c4ccccc4)CC(O)(C(OC(=O)c4ccccc4)C21)C3(C)C (centres unmarked) [Compound 12, PXL-10Ca-Gly-OH]	–	–	EC50 [1]: > 500 nM; Rhodamine 123 uptake [2]: a (a < 0.25)
PXL-10Ca-aniline [Compound 9]	10 to 500 nM	b (b = 30-70%)	–
PXL-10Ca-Z-Lys-OH [Compound 19]	> 500 nM	a (a > 70%)	–
CC(=O)OC12COC1CC(O)C1(C)C(=O)C(OC(=O)N3CCOCC3)C3=C(C)C(OC(=O)C(O)C(NC(=O)c4ccccc4)c4ccccc4)CC(O)(C(OC(=O)c4ccccc4)C21)C3(C)C (centres unmarked) [Compound 7, PXL-10Ca-Morpholine]	–	–	EC50 [1]: 10 to 500 nM; MPA: ability of the compound to promote polymerization of tubulin, expressed as percentage of the activity of paclitaxel [3]: a (key: a > 70%; b = 30-70%; c < 40%)
PXL-10Ca-p-NO2-aniline [Compound 18]	10 to 500 nM	b (b = 30-70%)	–
CC(=O)OC12COC1CC(O)C1(C)C(=O)C(OC(=O)n3cnc4ccccc43)C3=C(C)C(OC(=O)C(O)C(NC(=O)c4ccccc4)c4ccccc4)CC(O)(C(OC(=O)c4ccccc4)C21)C3(C)C (centres unmarked) [Compound 8, 10-O-deacetyl-paclitaxel-10-O-carbonyl-N-benzimidazole]	–	b (b = 30-70%)	–
PXL-10Ca-PEG6000-10Ca-PXL [Compound 29]	–	a (a > 70%)	–
PXL-10Ca-PEG(29)-VBL [Compound 28]	10 to 500 nM	–	MPA: ability of the compound to promote polymerization of tubulin, expressed as percentage of the activity of paclitaxel ([3]; relative to paclitaxel, given as number): 40%
PXL-10Ca-H-Lys-OH [Compound 20]	> 500 nM	a (a > 70%)	–
PXL-10Ca-di-Et-amine [Compound 23]	10 to 500 nM	c (c < 40%)	–
PXL-10Ca-piperidine [Compound 6]	< 10 nM	b (b = 30-70%)	–
PXL-10Ca-Glucosamine [Compound 5]	> 500 nM	a (a > 70%)	–
PXL-10Ca-Ph-acetic acid [Compound 10]	> 500 nM	a (a > 70%)	–
